# Measurements: publication PMC6154738, “Anti-Onchocerca and Anti-Caenorhabditis Activity of a Hydro-Alcoholic Extract from the Fruits of Acacia nilotica and Some Proanthocyanidin Derivatives” (Molecules : A Journal of Synthetic Chemistry and Natural …, 2017)
# Like-named read-outs stand apart in the source and are kept apart here.
# Key:
# [1] = test system: O. ochengi females; assay: microbe, parasite or virus in culture; parameters: species or system Onchocerca ochengi; conditions: for LC50: Onchocerca ochengi, 48 h; for Selectivity Index (SI) O. ochengi Females: SI = CC50 on Caco-2/LC50 on worm
# Experimental: The adult female worms were isolated by digestion of the nodules with collagenase at 37 °C. The female worms were cultured in a CO2-incubator [67]. For anthelmintic activity, they were incubated with the crude extracts, fractions and pure compounds.
# (§1) Adult worms (six individuals per well for males and one per well for the female) and Mf were washed twice and were subsequently transferred to RPMI-1640 medium supplemented with L-glutamine, 100 U/mL penicillin and 100 µg/mL streptomycin and incubated at 37 °C in 24-well plates (96-well plate for Mf) with different concentrations of the drugs tested. Worm mortality was checked by observation under the binocular microscope after 48 h. After shaking, immotile and fully-elongated worms were considered to be dead. All tests were done in three independent triplicate determinations.
# [2] = test system: Wistar rats; assay: Acute oral toxicity on rats
# Source text: Adult Wistar rats (Rattus norvegicus), males aged 7 to 8 weeks and weighing 150 to 200 g, used for the experiments were obtained from LANAVET (Laboratoire National Vétérinaire, Garoua, Cameroon). The rats were acclimatized for one week in the Veterinary Research Laboratory of the Institute of Agricultural Research for Development, Wakwa, Cameroon, before initiating experiments. Animals were housed in groups of three (one group for the negative control, six groups for each drug at the first phase, six others at the second phase) under ambient temperatures (23 °C ± 1 °C) with relative humidity 55 ± 5% and 12 h light/dark cycle in polycarbonate cages. […] They were monitored by a veterinarian for health status.
# Acute oral toxicity (LD50, that is the dose that kills 50% of animals of the tested group) was measured using the method of the OECD guidelines for the testing of chemicals [56] following the European Community guidelines for the protection of animals used in experiments [69] and respecting the 3Rs (Replacement, Refinement, Reduction) [70]. Drugs in distilled water were orally administered separately at doses of 10 mg/kg, 100 mg/kg and 1000 mg/kg body weight. The negative controls were distilled water-administered rats. They were given to three groups of three rats each and observed for 24 h. […] The test was done at a single oral dose for each rat in a 5 mL/kg volume. The experimental animals were starved for 24 h before and 4 h after treatment. […] The appearance of toxic symptoms, such as behavioral changes, locomotion, convulsions and mortality, was observed and recorded. Animals were observed constantly for the first 30 min after administration and, thereafter, every 4 h up to 24 h and, subsequently, once a day for up to 14 days.
# [3] = test system: C. elegans VC722 (glc-2(ok1047) I); assay: microbe, parasite or virus in culture; conditions: Caenorhabditis elegans, 48 h
# Experimental: (§2) All strains were obtained from the Caenorhabditis Genetic Centre (CGC, Minneapolis, MN, USA). Strains were maintained at 20 °C on nematode growth medium (NGM). All worms were age-synchronized and obtained from eggs that were isolated by bleaching.
# (§3) Young adult (L4 stage) worms were used to assess drug lethality. Monitored endpoint was 48 h mortality. Tests were performed in 24-well plates. Five hundred (500) microliters of test solution, which is M9-buffer (3 g KH2PO4, 6 g Na2HPO4, 5 g NaCl, 0.25 g MgSO4.7H2O, in 1 L of water after been autoclaved supplemented with 2% glucose, 0.5% cholesterol), were distributed in 24-well plates. The volume of M9-buffer equivalent to the drug to be added for each drug final concentration (in each test, three to six concentrations were used) was removed. Untreated worms in M9-buffer were used as negative control. […] Crude extract fraction (stock solution at 100 mg/mL) and pure compound (stock solution at 100 mg/mL) previously dissolved in M9-buffer were then added in well plates at increasing concentration (varying from 0 to 1000 or 1500 µg/mL for extract and fractions; 0 to 100 or 150 µg/mL). The young adult (10 to 15 ± 2) from the axenic culture (without food source) were then added at the test solution. […] Treatments were replicated three times.
# [4] = test system: C. elegans N2 Bristol WT; assay: microbe, parasite or virus in culture; conditions: for LC50: Caenorhabditis elegans, 48 h; for Selectivity Index (SI) C. elegans Wild Type: SI = CC50 on Caco-2/LC50 on worm
# Experimental: as §2, §3
# [5] = test system: C. elegans DA1316 (avr-14(ad1302) I avr-15(ad1051) glc-1(pk54)); assay: microbe, parasite or virus in culture; conditions: Caenorhabditis elegans, 48 h
# Experimental: as §2, §3
# [6] = test system: C. elegans CB3474 (ben-1(e1880) III); assay: microbe, parasite or virus in culture; conditions: Caenorhabditis elegans, 48 h
# Experimental: as §2, §3
# [7] = test system: C. elegans CB211 (lev-1(e211) IV); assay: microbe, parasite or virus in culture; conditions: Caenorhabditis elegans, 48 h
# Experimental: as §2, §3
# [8] = test system: C. elegans ZZ16 (lev-9(x16) X); assay: microbe, parasite or virus in culture; conditions: Caenorhabditis elegans, 48 h
# Experimental: as §2, §3
# [9] = test system: O. ochengi males; assay: microbe, parasite or virus in culture; parameters: species or system Onchocerca ochengi; conditions: for LC50: Onchocerca ochengi, 48 h; for Selectivity Index (SI) O. ochengi Males: SI = CC50 on Caco-2/LC50 on worm
# Source text: The adult male worms were isolated as previously describe by Ndjonka et al. from fresh pieces of cattle skin (cow-udder) with palpable nodules obtained from the communal slaughter house of Ngaoundere in the Adamawa region of Cameroon. Nodules removed from the skin were brought to the laboratory, washed, drained and sterilized with 70% ethanol for dissection. After dissection of nodules, O. ochengi were extracted, isolated and washed three times in sterile phosphate-buffered saline (PBS). To analyze the anthelmintic activity of extract, fractions and pure compounds, the worms were incubated at 37 °C.
# as §1
# [10] = In vitro cytotoxicity (MTT) and CC50 determination; assay type: cell-based; conditions: human; for CC50 at 48 h: Caco-2, CC50 after 48 h calculated in µM, read-out: Cytotoxicity CC50, Caco-2 (in brackets) (converted); for CC50 at 72 h: Caco-2, MTT, read-out: Cytotoxicity, means CC50 ± SD, Caco-2
# Experimental: Cell culture: […] cells at Passage 70 were kindly provided by Prof. Hensel, Institute of Pharmaceutical Biology and Phytochemistry, University of Münster, and were cultured as previously describe by Zumdick et al..
# Cytotoxicity test: The cytotoxicity assays were performed according to the method of Rahman et al.. Briefly, 1.5 × 10^4 viable cells/well were seeded in a 96-well plate and incubated for 24 to 48 h. […] DMEM samples were used as the negative control. […] The medium was removed, and formazan, generated by the activity of dehydrogenases, was solubilized with 70 µL of acidified isopropanol (0.4 M HCl). The amount of MTT-formazan that is directly proportional to the number of living cells was determined by measuring the optical density (OD) at 540 nm using a spectrophotometer. All controls used were treated equally. As control and to determine 100% growth, Caco-2 cells were grown in the absence of drugs so as to calculate cell viability. All determinations were performed in triplicate. […] The selectivity index (SI) values were calculated as the ratio: SI = CC50 of drug on Caco2/LC50 of drug on worm.
# [11] = test system: O. ochengi microfilariae; assay: microbe, parasite or virus in culture; parameters: species or system Onchocerca ochengi; conditions: for LC50: Onchocerca ochengi, 48 h; for Selectivity Index (SI) O. ochengi Microfilariae: SI = CC50 on Caco-2/LC50 on worm
# Experimental: Microfilariae were isolated as describe by Cho-Ngwa et al. and Ndjonka et al.. About 10 skin snips were obtained from different locations of the skin. The skin snips were then incubated at 37 °C in PBS to let Mf emerge. The highly motile Mf were concentrated by centrifugation at 400× g for 10 min and quantified. The Mf were incubated at 37 °C with the crude extract, fractions and pure compounds.
# as §1
# [12] = read-out: LC50/48 h (in brackets)
# [13] = Phase 1, 10 mg/kg single oral dose
# [14] = Phase 1, 100 mg/kg single oral dose
# [15] = Phase 1, 1000 mg/kg single oral dose
# [16] = Phase 2, 1500 mg/kg single oral dose
# [17] = Phase 2, 3000 mg/kg single oral dose
# [18] = Phase 2, 5000 mg/kg single oral dose
Compound,LC50 ([1]; read-out: LC50/48 h) [µg/mL],"LC50 [1, 12] [µM]",Selectivity Index (SI) O. ochengi Females [1],"Mortality of rats: rat number end/start [2, 13]","Mortality of rats: rat number end/start [2, 14]","Mortality of rats: rat number end/start [2, 15]","Mortality of rats: rat number end/start [2, 16]","Mortality of rats: rat number end/start [2, 17]",LC50 ([4]; read-out: LC50/48 h) [µg/mL],"LC50 [4, 12] [µM]",LC50 ([7]; read-out: LC50/48 h) [µg/mL],LC50 ([8]; read-out: LC50/48 h) [µg/mL],LC50 ([9]; read-out: LC50/48 h) [µg/mL],"LC50 [9, 12] [µM]",Selectivity Index (SI) O. ochengi Males [9],CC50 at 48 h [10] [µM],CC50 at 72 h [10] [µg/mL],LC50 ([11]; read-out: LC50/48 h) [µg/mL],"LC50 [11, 12] [µM]",Selectivity Index (SI) O. ochengi Microfilariae [11],other results
"O=C(O[C@H]1Cc2c(O)cc(O)cc2O[C@@H]1c1ccc(O)c(O)c1)c1cc(O)c(O)c(O)c1 [CG, (+)-catechin-3-O-gallate]",4.5 ± 0.3,10.2,14.7,0/3,0/3,0/3,0/3,0/3,90.6 ± 0.07,205,96.4 ± 0.1,95.3 ± 0.1,7.6 ± 0.2,17.2,8.7,150,66.3 ± 0.6,4.2 ± 0.1,9.4,15.8,"Mortality of rats: rat number end/start [2, 18]: 0/3; LC50 ([3]; read-out: LC50/48 h): 91.8 ± 0.3 µg/mL; LC50 [3, 12]: 208 µM; Selectivity Index (SI) C. elegans Wild Type [4]: 0.7; LC50 ([5]; read-out: LC50/48 h): 96.3 ± 0.3 µg/mL; LC50 [5, 12]: 218 µM; LC50 ([6]; read-out: LC50/48 h): 95.2 ± 0.3 µg/mL; LC50 [6, 12]: 215 µM; LC50 [7, 12]: 218 µM; LC50 [8, 12]: 215 µM"
"c1ccc([C@H]2CN3CCSC3=N2)cc1 [Levamisole, reference compound]",2.1 ± 0.1,10.2,13.0,,,,,,1.4 ± 0.2,7.2,> 100,> 100,1 ± 1,5.1,27.3,31.2,27.3 ± 0.8,1 ± 0.3,5.1,27.3,
"Oc1cc(O)c2c(c1)O[C@H](c1cc(O)c(O)c(O)c1)[C@@H](O)C2 [GC, (+)-gallocatechin]",5.5 ± 0.3,18,12.1,0/3,0/3,0/3,0/3,0/3,74.3 ± 0.3,242,21.5 ± 0.3,65.6 ± 0.2,4.2 ± 0.1,13.6,15.9,218,66.7 ± 0.7,3.2 ± 0.3,10.4,20.8,"Mortality of rats: rat number end/start [2, 18]: 0/3; LC50 ([3]; read-out: LC50/48 h): 96.3 ± 0.07 µg/mL; LC50 [3, 12]: 314 µM; Selectivity Index (SI) C. elegans Wild Type [4]: 0.9; LC50 ([5]; read-out: LC50/48 h): 82.5 ± 0.1 µg/mL; LC50 [5, 12]: 269 µM; LC50 ([6]; read-out: LC50/48 h): 83.1 ± 0.1 µg/mL; LC50 [6, 12]: 271 µM; LC50 [7, 12]: 70.2 µM; LC50 [8, 12]: 214 µM"
"Oc1cc(O)c2c(c1)O[C@H](c1cc(O)c(O)c(O)c1)[C@H](O)C2 [EGC, (−)-epigallocatechin]",3.3 ± 0.6,10.6,14.3,0/3,0/3,0/3,0/3,0/3,62.7 ± 0.2,205,83.3 ± 0.6,92 ± 0.3,2.1 ± 0.4,6.8,22.4,154,47.1 ± 0.5,3.3 ± 0.5,10.6,14.3,"Mortality of rats: rat number end/start [2, 18]: 0/3; LC50 ([3]; read-out: LC50/48 h): 93.8 ± 0.3 µg/mL; LC50 [3, 12]: 306 µM; Selectivity Index (SI) C. elegans Wild Type [4]: 0.8; LC50 ([5]; read-out: LC50/48 h): 87.5 ± 0.5 µg/mL; LC50 [5, 12]: 286 µM; LC50 ([6]; read-out: LC50/48 h): 53.8 ± 0.9 µg/mL; LC50 [6, 12]: 176 µM; LC50 [7, 12]: 272 µM; LC50 [8, 12]: 301 µM"
